Test results reported in patent publication US9701670B2, “Pyrazolyl-ureas as kinase inhibitors” (RESPIVERT LIMITED, priority 2013, dated 2017).

Key:
[1] = Plasma pharmacokinetics in beagle dogs; format: in vivo, male beagle dogs; conditions: Dog
Method: A study was conducted by Sai Life Sciences (Hinjewadi, Pune, India) to investigate the plasma pharmacokinetics of the compound of Example 77 in male beagle dogs following a single intravenous or oral administration.
A group of three male beagle dogs were administered orally with an aqueous suspension formulation (having 2% HPMC and 0.5% Tween 80) of the compound of Example 77, at a dose of 1 mg/kg. In addition, a group of three male beagle dogs were administered intravenously with a solution formulation (in 5% v/v DMSO, 7.5% w/v Solutol HS 15 and 87.5% saline (0.9% w/v NaCl)) of the compound of Example 77, at a dose of 0.05 mg/kg. Blood samples (approximately 1.5 mL) were collected from jugular vein such that the samples were obtained at pre-dose, 0.25, 0.5, 1, 2, 4, 6, 8, and 24 hr (p.o.) and pre-dose, 0.08, 0.25, 0.5, 1, 2, 4, 8, 12, 24 and 32 hr (i.v.) post dose. The blood samples were collected from a set of three dogs at each time point in labelled micro centrifuge tube containing K2EDTA as anticoagulant. Plasma samples were separated by centrifugation at 2500 g for 10 min of whole blood and stored below −70° C. until bioanalysis. All samples were processed for analysis by protein precipitation using acetonitrile and analyzed with LC-MS/MS method (LLOQ=0.50 ng/mL). Pharmacokinetic parameters were calculated using the non-compartmental analysis tool of Phoenix WinNonlin® (Version 6.3).

B-Raf = B-Raf (Homo sapiens (Human), UniProt P15056); assay: Enzyme binding assay (Kinomescan)
Method: The kinase enzyme binding activities of compounds disclosed herein were determined using a proprietary assay which measures active site-directed competition binding to an immobilized ligand (Fabian, M. A. et al., Nature Biotechnol., 2005, 23:329-336). These assays were conducted by DiscoverX (formerly Ambit; San Diego, Calif.). The percentage inhibition produced by incubation with a test compound is calculated relative to the non-inhibited control.

BDF1 mice = assay: (C) TNBS-induced colitis in mice; format: in vivo, mouse; parameters: TNBS Ulcer grade / TNBS LP inflammation: scale not given here; conditions: 2 days; for TNBS LP inflammation / TNBS Ulcer grade: mice
Method: Non-fasted, 10-12 week old, male BDF1 mice are dosed by oral gavage twice daily with either vehicle (5 mL/kg), reference item (Budesonide 2.5 mg/kg) or test compound (1, 5 or 50 mg/kg) one day before (Day −1) stimulation of the inflammatory response by treatment with 2,4,6-trinitrobenzenesulphonic acid (TNBS) (15 mg/mL in 50% ethanol/50% saline). On Day 0 of the study TNBS (200 μL) is administered intra-colonically via a plastic catheter followed by BID dosing of the vehicle, reference or test compound for 2 or 4 days. During the study animals are weighed every day and stool observations are made and recorded as a score, based on stool consistency. At the time of sacrifice on Day 2 (or Day 4) the large intestine is removed and the length and weight recorded. Sections of the colon are taken for either MPO analysis to determine neutrophil infiltration or for histopathology involving scoring to determine disease severity.

[2] = system: β-catenin in d-U937 cells; assay: (m) Accumulation of β catenin in d-U937 cells; format: cell-based, human
Procedure, shortened: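 PMA-differentiated U937 macrophage-type cells (100 ng/mL, 48–72 hr) were exposed to test compound or vehicle for 18 hr, then fixed. β-catenin was measured by cell ELISA (HRP/TMB, OD450-655) and normalised to crystal violet OD595. Signals below 15% of the standard control were designated "-ve".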

[3] = system: Salmonella typhimurium, strains TA98 and TA100; assay: Mutagenicity assessment (bacterial reverse mutation screen); format: cell-based; conditions: TA98 and TA100, presence or absence of S-9 mix, up to 5000 μg/plate
Method: Studies were conducted by Sequani (Ledbury, Herefordshire, UK) to assess the compound of Example 77 in vitro for its ability to induce mutations in two histidine dependent auxotrophic mutants of Salmonella typhimurium, strains TA98 and TA100.
The mutation screen was conducted using the plate incorporation method and was performed in both the presence and absence of S-9 mix (a liver post-mitochondrial fraction derived from the livers of Aroclor 1254 treated rats). The bacteria were exposed to the compound of Example 77 dissolved in dimethylsulphoxide, which solvent was also used as the negative control. The dose levels used were 0.32, 1.6, 8, 40, 200, 1000 or 5000 μg/plate.

[4] = male, beagle, plasma, intravenous 0.05 mg/kg

Sequence of B-Raf (P15056 whole entry): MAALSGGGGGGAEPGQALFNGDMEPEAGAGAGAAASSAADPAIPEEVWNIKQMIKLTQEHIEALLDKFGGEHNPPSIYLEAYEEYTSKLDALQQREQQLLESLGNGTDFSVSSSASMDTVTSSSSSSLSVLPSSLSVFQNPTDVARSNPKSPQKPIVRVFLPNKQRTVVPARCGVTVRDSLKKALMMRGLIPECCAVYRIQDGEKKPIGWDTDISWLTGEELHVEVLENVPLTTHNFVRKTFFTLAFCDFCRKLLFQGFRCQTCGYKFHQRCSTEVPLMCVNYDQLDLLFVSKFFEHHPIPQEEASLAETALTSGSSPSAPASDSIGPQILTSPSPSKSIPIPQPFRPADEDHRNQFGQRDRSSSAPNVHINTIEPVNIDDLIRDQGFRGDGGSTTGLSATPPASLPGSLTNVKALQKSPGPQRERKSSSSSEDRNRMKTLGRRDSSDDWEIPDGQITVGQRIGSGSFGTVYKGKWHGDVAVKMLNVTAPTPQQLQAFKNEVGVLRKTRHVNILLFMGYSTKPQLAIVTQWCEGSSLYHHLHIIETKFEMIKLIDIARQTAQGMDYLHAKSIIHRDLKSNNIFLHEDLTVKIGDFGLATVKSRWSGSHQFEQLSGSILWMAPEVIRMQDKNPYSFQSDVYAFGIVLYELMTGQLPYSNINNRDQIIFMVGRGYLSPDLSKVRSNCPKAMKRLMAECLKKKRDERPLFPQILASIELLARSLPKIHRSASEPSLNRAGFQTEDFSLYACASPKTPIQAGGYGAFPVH

**Q.** With `C#Cc1cc(Nc2nccc(Oc3ccc(NC(=O)Nc4cc(C(C)(C)C)nn4-c4ccc(OC)cc4)c4ccccc34)n2)cc(C(=O)NCCN2CCOCC2)c1` [Example 77, 3-((4-((4-(3-(3-(tert-Butyl)-1-(4-methoxyphenyl)-1H-pyrazol-5-yl)ureido)-naphthalen-1-yl)oxy)pyrimidin-2-yl)amino)-5-ethynyl-N-(2-morpholinoethyl)benzamide] as the compound, how does the “plasma exposure after oral administration” value ([1]; 1 mg/kg p.o.) read?
**A.** The value was “no plasma exposure at all was observed”.

**Q.** What about the Fpo ([1]; 1 mg/kg p.o., Plasma) of the same compound?
**A.** The Fpo was 0%.

**Q.** And the AUC(0-inf) [1, 4]?
**A.** The AUC(0-inf) was 37 ng·h/mL.

**Q.** What about the AUC(0-t) [1, 4] of the same compound?
**A.** The AUC(0-t) was 33.6 ng·h/mL.

**Q.** What about the C0 [1, 4] of the same compound?
**A.** Its C0 is 283 ng/mL.

**Q.** And the Vd [1, 4]?
**A.** The Vd was 1.8 L/kg.

**Q.** What about the clearance [1, 4] of the same compound?
**A.** Its clearance is 25.4 mL/min/kg.

**Q.** And the half-life [1, 4]?
**A.** Its half-life is 150 min.

**Q.** What about the “effect on the binding of the kinase B-Raf to its standard ligand” value (B-Raf) of the same compound?
**A.** Its value is “did not have any effect”.

**Q.** And the “histopathology analysis, in vivo model of colonic inflammation” value (BDF1 mice; TNBS-induced colitis, dosed orally at 5 mg/kg)?
**A.** The value was “significant activity”.

**Q.** What about the “TNBS LP inflammation” value (BDF1 mice; 1 mg/kg oral BID) of the same compound?
**A.** The value was 2.4 ± 0.3.

**Q.** What about the “TNBS Ulcer grade” value (BDF1 mice; 1 mg/kg oral BID) of the same compound?
**A.** The value was 3.1 ± 0.5.

**Q.** And the “TNBS LP inflammation” value (BDF1 mice; 5 mg/kg oral BID)?
**A.** Its value is 2.1 ± 0.3.

**Q.** And the “TNBS Ulcer grade” value (BDF1 mice; 5 mg/kg oral BID)?
**A.** Its value is 2.4 ± 0.5.

**Q.** What about the “% β-catenin induction” value ([2]; 1 μg/mL test compound) of the same compound?
**A.** The value was 1%.

**Q.** What about the “% β-catenin induction” value ([2]; 5 μg/mL test compound) of the same compound?
**A.** The value was 0%.

**Q.** What about the “% β-catenin induction” value ([2]; 10 μg/mL test compound) of the same compound?
**A.** Its value is −8%.

**Q.** And the “ability to induce mutations (revertant colonies)” value [3]?
**A.** The value was “no dose-related or statistically significant increases in revertant colonies”.
